The results in this text go back to patent publication EP0298890A2, “New 2-(P-isobutylphenyl)-propionic acid ester and process for the preparation thereof” (Sune Coma, Nuria, priority 1987, dated 1989).

A short description of one series: solubility in water. In kind it is physicochemical. The following applies: qualitative statement, no method given.
The subject of series [1] is rat. Description: phenylbenzoquinone test p.o. in the rat (analgesic effect). In kind it is in vivo. Particulars: comparison of ED₅₀ values.
For series [2], the system named is rat. Description: carrageenin test p.o. in the rat (antiinflammatory effect). In kind it is in vivo. Particulars: comparison of ED₅₀ values.

For the molecule `CC(C)Cc1ccc(C(C)C(=O)OCCN(C)C)cc1` (stereo not drawn) [I, N,N-dimethylaminoethanol 2-(p-isobutylphenyl)-propionate], the “solubility in water compared with the formula II acid” value in the series “solubility in water” is recorded as “more soluble in water”. In addition, the “analgesic activity compared with the formula II compound” value in the series with rat [1] is reported as “twice as active as an analgesic”. For the same molecule, the “antiinflammatory activity compared with the formula II compound” value with rat [2] is “same antiinflammatory activity”.
